Reference: patent publication US9238034B2, “FN14 antagonists and therapeutic uses thereof” (THE TRANSLATIONAL GENOMICS RESEARCH INSTITUTE, priority 2013, dated 2016)
Read-outs that look alike come from different tables or passages of the source.

How the values were obtained:
Fn14-TWEAK binding = biological target: T1, Fn14-TWEAK binding (Homo sapiens, UniProt Q9NP84); assay: Double sandwich ELISA small molecule screening of TWEAK binding to captured Fn14-Fc
T1 construct: the human Fc fragment-tagged Fn14 extracellular domain (R&D Systems) was captured; purchased R&D Systems (Fn14-Fc); Peprotech (recombinant TWEAK)
T1 sequence (Q9NP84 28-80 limits assumed): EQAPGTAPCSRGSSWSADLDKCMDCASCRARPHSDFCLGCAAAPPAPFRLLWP
Summary of the method: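 Fn14-Fc (human Fc-tagged extracellular domain) captured on anti-human Fc wells; compounds at 25 μM (0.125% DMSO) preincubated 2 h at room temperature, then TWEAK added to 500 pg/mL final for 2 h. Bound TWEAK detected with biotinylated anti-TWEAK antibody, HRP-streptavidin and chemiluminescence; binding reduction calculated from a per-plate recombinant TWEAK standard curve.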

TWEAK = biological target: T2, TWEAK (Homo sapiens, UniProt O43508); assay: Surface Plasmon Resonance assay, TWEAK sensor surface; assay type: binding; conditions: SPR, 0 to 50 μM
T2 sequence (O43508 94-249 limits assumed): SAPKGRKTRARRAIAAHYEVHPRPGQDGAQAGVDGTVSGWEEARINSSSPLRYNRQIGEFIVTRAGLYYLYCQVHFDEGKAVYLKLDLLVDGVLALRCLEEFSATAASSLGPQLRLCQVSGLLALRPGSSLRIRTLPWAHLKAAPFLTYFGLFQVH
Description: Surface Plasmon Resonance (SPR) Assay. The binding affinity of at least one of the compounds (e.g., L524-0366) to TWEAK and Fn14-Fx was determined using a BIAcore T100 optical biosensor (GE Healthcare) at 25 degrees Celsius at the Arizona Proteomics Consortium. Recombinant human TWEAK (20 μg/mL in 10 mM HEPES pH 7.4, 150 mM NaCl, 3 mM EDTA, 0.05% Tween 20) or recombinant human Fn14-Fc (20 μg/mL in 10 mM NaOAc pH 4.0) were covalently coupled to separate flow cells on a BIAcore CM5 sensor chip using standard amine coupling chemistry as per manufacturer's protocol. Final immobilization levels were 6000 Response Units (RU) for TWEAK and 13,000 RU for FN14-Fc. The first flow path of the chip was treated with the same coupling and blocking reagents without protein and was used as a reference for each binding cycle. Functionality of the TWEAK and the Fn14-Fc sensor surfaces were verified by injecting Fn14-Fc and TWEAK over them respectively. Serial dilutions of L524-0366 or cycloheximide (control) from 0 to 50 μM were made in running buffer (10 mM HEPES pH 7.4, 150 mM NaCl, 3 mM EDTA, 1% DMSO). […] Equilibrium dissociation constants for the small molecules were calculated by fitting the double reference subtracted data to Req=((CRmax)/(KD+C))+RI, where RI is the bulk refractive index contribution.

## O=C(c1cn(-c2cccc(Cl)c2)nn1)N1CCSCC1 [Compound L524-0366]
Fn14-TWEAK binding; Table 4, second screening iteration, 25 μM, average of duplicate, read-out: % Reduction in TWEAK Binding, Average
  inhibition at 25 µM: 16.9%
Fn14-TWEAK binding; Table 4, second screening iteration, 25 μM, replicate 1, read-out: % Reduction in TWEAK Binding, Data 1
  inhibition at 25 µM: 18.8%
Fn14-TWEAK binding; Table 4, second screening iteration, 25 μM, replicate 2, read-out: % Reduction in TWEAK Binding, Data 2
  inhibition at 25 µM: 14.9%
Fn14-TWEAK binding; Table 5, 25 μM, average of duplicate, read-out: % Reduction in TWEAK Binding, Average
  inhibition at 25 µM: 16.9%
Fn14-TWEAK binding; Table 5, 25 μM, replicate 1, read-out: % Reduction in TWEAK Binding, Data 1
  inhibition at 25 µM: 18.8%
Fn14-TWEAK binding; Table 5, 25 μM, replicate 2, read-out: % Reduction in TWEAK Binding, Data 2
  inhibition at 25 µM: 14.9%
TWEAK
  binding to TWEAK: not to the TWEAK surface
